Two compounds from PubChem BioAssay AID1259407 (Chemical Carcinogenesis Research Information System (CCRIS), 2018) can be followed below.

The data set has as its system CCRIS mutagenicity, Ames/micronucleus/aberration tests. Put plainly: CCRIS mutagenicity studies. Particulars: Test System: AMES SALMONELLA TYPHIMURIUM
Setting [1] is: Strain/Indicator: TA98, Metabolic Activation: NONE, Method: PREINCUBATION
[2] abbreviates: Strain/Indicator: TA100, Metabolic Activation: NONE, Method: PREINCUBATION

Structures are written as SMILES. Active and inactive are the calls of the source. No rule for the calls is given here.

For `O=[N+]([O-])c1ccc2c(c1)oc1ccccc12`, the mutagenic call runs as follows: (Strain/Indicator: TA98(1,8-DNP6), Metabolic Activation: NONE, Method: PREINCUBATION) “active; positive”; (Strain/Indicator: TA98(1,8-DNP6), Metabolic Activation: NONE, Method: SUSPENSION) “active; positive”; (Strain/Indicator: TA98(1,8-DNP6), Metabolic Activation: RAT, LIVER, S-9, PCB (5%), Method: PREINCUBATION) “active; positive”; (Strain/Indicator: TA98(NR), Metabolic Activation: NONE, Method: PREINCUBATION) “active; positive”; (Strain/Indicator: TA98(NR), Metabolic Activation: NONE, Method: SUSPENSION) “active; positive”; (Strain/Indicator: TA98(NR), Metabolic Activation: RAT, LIVER, S-9 (10%), Method: PREINCUBATION) “active; positive”. In addition, the mutagenic call is “active; positive” (Strain/Indicator: TA98(NR), Metabolic Activation: RAT, LIVER, S-9, 3-METHYLCHOLANTHRENE (10%), Method: PREINCUBATION); “active; positive” (Strain/Indicator: TA98(NR), Metabolic Activation: RAT, LIVER, S-9, BETA-NAPHTHOFLAVONE (10%), Method: PREINCUBATION); “active; positive” (Strain/Indicator: TA98(NR), Metabolic Activation: RAT, LIVER, S-9, PCB (5%), Method: PREINCUBATION); “active; positive” (Strain/Indicator: TA98(NR), Metabolic Activation: RAT, LIVER, S-9, PCB (10%), Method: PREINCUBATION); “active; positive” (Strain/Indicator: TA98(NR), Metabolic Activation: RAT, LIVER, S-9, PHENOBARBITAL (10%), Method: PREINCUBATION); “active; positive” under setting [1]. Besides, the mutagenic call is, setting by setting: (Strain/Indicator: TA98, Metabolic Activation: NONE, Method: STANDARD PLATE) “active; positive”; (Strain/Indicator: TA98, Metabolic Activation: NONE, Method: SUSPENSION) “active; positive”; (Strain/Indicator: TA98, Metabolic Activation: RAT, LIVER, S-9, PCB (5%), Method: PREINCUBATION) “active; positive”; (Strain/Indicator: TA98, Metabolic Activation: RAT, LIVER, S-9, PCB, Method: SUSPENSION) “active; positive”; (Strain/Indicator: TA98, Metabolic Activation: S-9, PHENOBARBITAL AND 5,6-BENZOFLAVONE, Method: STANDARD PLATE) “active; positive”; under setting [2], “inactive; negative”. The mutagenic call is “active; positive” (Strain/Indicator: TA100, Metabolic Activation: NONE, Method: STANDARD PLATE); “active; positive” (Strain/Indicator: TA100, Metabolic Activation: NONE, Method: SUSPENSION); “inactive; negative” (Strain/Indicator: TA100, Metabolic Activation: RAT, LIVER, S-9, PCB (5%), Method: PREINCUBATION); “inactive; negative” (Strain/Indicator: TA100, Metabolic Activation: RAT, LIVER, S-9, PCB, Method: SUSPENSION); “active; positive” (Strain/Indicator: TA100, Metabolic Activation: S-9, PHENOBARBITAL AND 5,6-BENZOFLAVONE, Method: STANDARD PLATE).

Take `C=C(C)C(=O)OCCCCCCCC(C)C`: the mutagenic call reads like this: (Strain/Indicator: TA97, Metabolic Activation: HAMSTER, LIVER, S-9, AROCLOR 1254 (10 OR 30%), Method: PREINCUBATION) “inactive; negative”; (Strain/Indicator: TA97, Metabolic Activation: NONE, Method: PREINCUBATION) “inactive; negative”; (Strain/Indicator: TA97, Metabolic Activation: RAT, LIVER, S-9, AROCLOR 1254 (10 OR 30%), Method: PREINCUBATION) “inactive; negative”; (Strain/Indicator: TA98, Metabolic Activation: HAMSTER, LIVER, S-9, AROCLOR 1254 (10 OR 30%), Method: PREINCUBATION) “inactive; negative”; under setting [1], “inactive; negative”; (Strain/Indicator: TA98, Metabolic Activation: RAT, LIVER, S-9, AROCLOR 1254 (10 OR 30%), Method: PREINCUBATION) “inactive; negative”. Further, the mutagenic call was “inactive; negative” (Strain/Indicator: TA100, Metabolic Activation: HAMSTER, LIVER, S-9, AROCLOR 1254 (10 OR 30%), Method: PREINCUBATION); “inactive; negative” under setting [2]; “inactive; negative” (Strain/Indicator: TA100, Metabolic Activation: RAT, LIVER, S-9, AROCLOR 1254 (10 OR 30%), Method: PREINCUBATION); “inactive; negative” (Strain/Indicator: TA1535, Metabolic Activation: HAMSTER, LIVER, S-9, AROCLOR 1254 (10 OR 30%), Method: PREINCUBATION); “inactive; negative” (Strain/Indicator: TA1535, Metabolic Activation: NONE, Method: PREINCUBATION); “inactive; negative” (Strain/Indicator: TA1535, Metabolic Activation: RAT, LIVER, S-9, AROCLOR 1254 (10 OR 30%), Method: PREINCUBATION).
